Like-named read-outs stand apart in the source and are kept apart here.
What was measured:
full-length HAQ STING = full-length HAQ STING (Homo sapiens (Human), UniProt Q86WV6, G230A/H232R/R293Q/R71H); experiment: 3H-cGAMP filtration binding assay (HAQ STING); settings: competition with tritiated cGAMP ligand, HAQ STING membrane
Description: The ability of compounds to bind STING is quantified by the ability to compete with tritiated cGAMP ligand for human STING receptor membrane using a radioactive filter-binding assay. The binding assay employs STING receptor obtained from Hi-Five cell membranes overexpressing full-length HAQ STING prepared in-house and tritiated cGAMP ligand also purified in-house.
(§1) The ability of compounds to bind STING is quantified by their ability to compete with tritiated cGAMP ligand for human STING receptor membrane using a radioactive filter-binding assay. The binding assay employs STING receptor obtained from Trichoplusia ni cell membranes (T.ni; Expression Systems, cat #94-002F, www.expressionsystems.com) overexpressing full-length HAQ STING and tritiated cGAMP ligand.
The basic HAQ STING filtration assay protocol is as follows:
The compounds were serially titrated by the Hamilton STARPlus CORE in a 96-well plate (Greiner, #651201) using a 1:3 ten-point dose response format. After compound preparation, a 2.2 ug/ml working concentration of STING membrane (SEQ. ID. No. 1) was prepared by diluting concentrated membrane into assay buffer (lx PBS; Invitrogen #SH30028.02) and douncing 7× using a manual tissue homogenizer (Wheaton, #357546). 148 uL of prepared membrane was then manually added to each well of a 96-well deep-well polypropylene plate (Fisher Scientific, #12-566-121). Following membrane addition, 2 uL of either titrated test compound, DMSO control (Sigma #276855), or cold cGAMP control was added to the appropriate wells using a BIOMEK FX. Compound and membrane then preincubated for 60 min at RT to allow compound binding to equilibrate. Following equilibration, 8 nM of [^3H]c-GAMP ligand was prepared by diluting into assay buffer, and 50 uL of this working stock was then manually added to each well of the assay plate. Plates were then incubated at RT for 60 min, and the contents of each assay plate were then filtered through a 96-well GF/B filter plate (PerkinElmer, #6005250) using a TOMTEC MACH III Cell Harvester equipped with 20 mM HEPES buffer (Fisher Scientific, #BP299500). The filter plates were then dried at 55° C. for 30 min using a pressurized oven before 30 uL of ULTIMA GOLD F scintillate was added to each well. Tritium levels for each reaction well were then measured using a PerkinElmer TopCount plate reader.
(§2) After normalization to controls, the percent activity for each compound concentration was calculated by measuring the amount of remaining radioactivity. The plot of percent activity versus the log of compound concentration was fit with a 4-parameter dose response equation to calculate EC50 values.

full-length WT STING = full-length WT STING (Homo sapiens (Human), UniProt Q86WV6, H232R); experiment: 3H-cGAMP filtration binding assay (WT STING); settings: WT STING membrane
Method: as §1, with “#94-002F,” for “#94-002F, www.expressionsystems.com)”, “WT” for “HAQ”
The basic WT STING filtration assay protocol is as follows:
16 nM of [^3H] c-GAMP ligand was prepared by diluting into assay buffer, and 50 uL of this working stock was manually added to each well of the assay plate. After ligand addition, 2 uL of either titrated test compound, DMSO control (Sigma #276855), or cold cGAMP control was added to the appropriate wells using a BIOMEK FX. The serially titrated compound was prepared on a Hamilton STARPlus CORE in a 96-well plate (Greiner, #651201) using a 1:3 ten-point dose response format. Following compound addition, a 2.2 ug/ml working concentration of STING membrane (SEQ. ID. No. 3) was prepared by diluting concentrated membrane into assay buffer (1×PBS; Invitrogen #SH30028.02) and douncing 7× using a manual tissue homogenizer (Wheaton, #357546). 148 uL of this prepared membrane was then manually added to each well of a 96-well deep-well polypropylene plate (Fisher Scientific, #12-566-121). Compound, ligand, and membrane then incubated for 60 min at RT before the contents of each assay plate were filtered through a 96-well GF/B filter plate (PerkinElmer, #6005250) using a TOMTEC MACH III Cell Harvester equipped with 20 mM HEPES buffer (Fisher Scientific, #BP299500). The filter plates were then dried at 55° C. for 30 min using a pressurized VWR oven before 30 uL of ULTIMA GOLD F scintillate was added to each well. Tritium levels for each reaction well were then measured using a PerkinElmer TopCount plate reader.
as §2

THP1 cells = experiment: IFN-β secretion in THP1 cell culture (5 h); format: cell-based, human; settings: 30 μM compound, relative to 2′3′-cGAMP at 30 μM; for activation at 30 µM: Homo sapiens, THP-1, 5 h, read-out: % Effect at 30 μM relative to 2′3′-cGAMP
Method: The ability of compounds to stimulate the secretion of interferon-beta from THP1 cells was measured using a human IFN-β AlphaLISA kit (Perkin Elmer, Cat. No. AL265F). The basic protocol is as follows:
A Labcyte Echo 550 acoustic dispenser was used to transfer 120 nL of compound dissolved in DMSO into the wells of an empty, sterile 384-well microplate, (Corning, Cat. No. 3712). THP1 cells (American Type Culture Collection, Cat. No. TIB202) previously frozen in Recovery Medium (Life Technologies, Cat. No. 12648-010) were thawed and immediately diluted 10-fold into 37° C. assay medium (RPMI 1640+L-Glutamine & phenol red, Life Technologies, Cat. No. 11875-085; 0.5% heat inactivated fetal bovine serum, Sigma Aldrich, Cat. No. F4135; 1 mM Sodium Pyruvate, Life Technologies, Cat. No. 11360-070; lx non-essential amino acids; Life Technologies, Cat. No. 11140-050). The cell viability and count was ascertained using a Beckman Coulter V-Cell XR cell counter. The cell suspension was centrifuged at 200×g for 5 min at RT. Cells were resuspended to a density of 0.8×10^6/mL in 37° C. assay medium. Subsequent liquid transfers were performed using either a Matrix electronic multichannel pipette or an Agilent Bravo Automated Liquid Handling Platform.
The assay was started by dispensing 40 μL of the previously prepared cell suspension into the wells of the plate containing compounds. After 5 h incubation at 37° C., 5% CO2 in a humidified atmosphere, the plate of cells and compounds was centrifuged at 200×g for 5 min at RT. From each well, 5 μL of supernatant was transferred into corresponding wells of a white 384-well plate (Perkin Elmer, Cat. No. 6005620). To these supernatant-containing wells was added 10 μL of 5× Anti-Analyte Acceptor beads (50 μg/mL of AlphaLISA HiBlock Buffer) and incubated for 30 min at RT while shaking on an orbital plate shaker. To each well was added 10 μL of 5× Biotinylated Antibody Anti-analyte (5 nM in AlphaLISA HiBlock Buffer) and incubated on an orbital plate shaker for 60 min at RT or overnight at 4° C. To each well was added 25 μL of 2×SA-Donor beads (80 μg/mL in AlphaLISA HiBlock Buffer) and incubated for 30-45 min at RT in the dark while shaking on an orbital plate shaker. The plate was then read on a Perkin Elmer Envision (λex=680 nm, λem=570 nm). The percent effect of the AlphaLISA signal at each compound concentration was calculated based on 30 uM cGAMP positive controls and 0.3% DMSO negative controls. The plot of percent effect versus the log of compound concentration was fit with a 4-parameter concentration response equation to calculate EC50 values. The test compounds were tested at concentrations 30000, 10000, 3333, 1111, 370.4, 123.4, 41.2, 13.7, 4.6, and 1.5 nM with 0.3% residual DMSO. The control compound, cGAMP was tested at concentrations 100000, 33333, 11111, 3704, 1235, 412, 137, 46, and 15 nM with 0.3% residual DMSO.
Compounds of the disclosure were evaluated for IFN-β secretion in THP1 cell culture as described above. The following table tabulates the biological data for these compounds as percent activation relative to 2′3′-cGAMP at the 30 μM concentration.

[1] = competition with tritiated cGAMP ligand, read-out: EC50

full-length HAQ STING, sequence (Q86WV6 whole entry, looked up, stated change not applied): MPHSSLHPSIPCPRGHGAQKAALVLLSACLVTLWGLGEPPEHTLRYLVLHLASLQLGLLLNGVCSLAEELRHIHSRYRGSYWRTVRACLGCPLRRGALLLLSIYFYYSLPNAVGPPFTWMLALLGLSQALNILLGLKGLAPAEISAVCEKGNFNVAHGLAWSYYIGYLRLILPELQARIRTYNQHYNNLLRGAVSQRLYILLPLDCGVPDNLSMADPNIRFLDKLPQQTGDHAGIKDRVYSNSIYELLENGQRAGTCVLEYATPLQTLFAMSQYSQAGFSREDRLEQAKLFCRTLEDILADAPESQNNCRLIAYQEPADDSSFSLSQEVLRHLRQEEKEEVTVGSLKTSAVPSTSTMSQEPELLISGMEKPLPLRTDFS
full-length WT STING, sequence (Q86WV6 whole entry, looked up, stated change not applied): as above

SMILES | EC50 (full-length HAQ STING) | EC50 (full-length WT STING; [1]) | activation at 30 µM (THP1 cells) | EC50 (full-length WT STING; EC50, competition with tritiated cGAMP ligand) | % Effect at 30 μM relative to 2′3′-cGAMP (THP1 cells)
Nc1nc2c(ncn2[C@@H]2S[C@@H]3COP(=S)(S)O[C@H]4[C@H](F)[C@H](n5cnc6c(N)ncnc65)O[C@@H]4COP(=O)(O)O[C@@H]2[C@@H]3O)c(=O)[nH]1 (stereo partly drawn) [Example 20, 2-amino-9-[(5R,7R,8R,12aR,14R,15S,15aR,16S)-14-(6-amino-9H-purin-9-yl)-15-fluoro-10,16-dihydroxy-10-oxido-2-sulfanyl-2-sulfidooctahydro-12H-5,8-methanofuro[3,2-l][1,3,9,11,6,2,10]tetraoxathiadiphosphacyclotetradecin-7-yl]-1,9-dihydro-6H-purin-6-one] | 1 nM | 3 nM | 137% |  | 
Nc1nc2c(ncn2[C@@H]2O[C@@H]3COP(=S)(S)O[C@H]4[C@H](F)[C@H](n5cnc6c(N)ncnc65)O[C@@H]4COP(O)(=S)O[C@@H]2[C@@H]3F)c(=O)[nH]1 (single isomer, unassigned) [Example 1] | < 1 nM |  | 165% | < 1 nM | 
Nc1nc2c(ncn2[C@@H]2O[C@@H]3COP(=S)(S)O[C@H]4C[C@H](c5cnc6c(N)ncnn56)O[C@@H]4COP(O)(=S)O[C@@H]2C3)c(=O)[nH]1 (single isomer, unassigned) [Example 8] | 7 nM | 13 nM |  |  | 110%
Nc1nc2c(ncn2[C@@H]2O[C@@H]3COP(=S)(S)O[C@H]4C[C@H](n5cnc6c(N)ncnc65)O[C@@H]4COP(O)(=S)O[C@@H]2C3)c(=O)[nH]1 (single isomer, unassigned) [Example 3] | 2 nM | 4 nM | 128% |  | 
